{
  "source": "patent US11478440B2",
  "about": "“Combination of Elafibranor or derivatives thereof with an anti-NASH, anti-fibrotic or anti-cholestatic agent” (GENFIT, priority 2017, dated 2022)",
  "tested_on": "LPS-activated macrophages (THP-1)",
  "assay": "TNFα secretion (HTRF) in LPS-activated THP-1 macrophages",
  "assay_type": "cell-based, human",
  "conditions": "Elafibranor 1 μM alone; LPS 100 ng/ml 6 h",
  "method": "THP-1 monocytes (ECACC #88081201) were seeded at a density of 25550 cells per well in 384-well plate in RPMI1640 (Gibco, 21875) supplemented with 10% SVF and differentiated into macrophages using PMA (Phorbol 12-myristate 13-acetate, Sigma, P8139) at the final concentration of 100 ng/ml for 24 hours.\nFor these experiments, a checkerboard matrix was generated. ELA and component stocks were serially diluted in DMSO in 6-points series in a column (ELA) and a 10-points series in a raw (component) of a 96-well plate for other compounds. Subsequently, the 6×10 combination matrix was generated by 1:1 mixing of all single agent concentrations.\nAfter 24 hrs with PMA, medium was removed, and replaced by serum free RPMI. […]\nHuman TNFα is quantified in the supernatants using the Homogeneous Time Resolved Fluorescence (HTRF) technology (Cisbio 62[…]), based on FRET technology. FRET (Fluorescence Resonance Energy Transfer) is based on the transfer of energy between two fluorophores, a donor and an acceptor, when in close proximity. Molecular interactions between biomolecules can be assessed by coupling each partner with a fluorescent label and by detecting the level of energy transfer (665 nm). […]",
  "data": [
    {"substance": "1-[4-methylthiophenyl]-3-[3,5-dimethyl-4-carboxydimethylmethyloxyphenyl]prop-2-en-1-one [Elafibranor]", "values": [
      {"measurement": "inhibition of TNFα secretion", "value": 21, "unit": "%"}
    ]}
  ]
}
